Laboratory results as given in ChEMBL document CHEMBL1126725, “Enantioselectivity of cocaine recognition sites: binding of (1S)- and (1R)-2 beta-carbomethoxy-3 beta-(4-iodophenyl)tropane (beta-CIT) to monoamine transporters” (J Med Chem, 1993).

Tests used:
Rattus norvegicus = organism: Rattus norvegicus; test: (§1) Tested for its ability to displace [125I]- (1R)-beta-CIT with rat striatal membranes; set-up: species or system Membrane; conditions: Striatum
[1] = target: Sodium-dependent serotonin transporter (Homo sapiens, UniProt P31645); test: Compounds binding ability to serotonin transporter was evaluated by displacing [3H]paroxetine in baboon brain; set-up: species or system Papio hamadryas
Sodium-dependent serotonin transporter, sequence (P31645 whole entry): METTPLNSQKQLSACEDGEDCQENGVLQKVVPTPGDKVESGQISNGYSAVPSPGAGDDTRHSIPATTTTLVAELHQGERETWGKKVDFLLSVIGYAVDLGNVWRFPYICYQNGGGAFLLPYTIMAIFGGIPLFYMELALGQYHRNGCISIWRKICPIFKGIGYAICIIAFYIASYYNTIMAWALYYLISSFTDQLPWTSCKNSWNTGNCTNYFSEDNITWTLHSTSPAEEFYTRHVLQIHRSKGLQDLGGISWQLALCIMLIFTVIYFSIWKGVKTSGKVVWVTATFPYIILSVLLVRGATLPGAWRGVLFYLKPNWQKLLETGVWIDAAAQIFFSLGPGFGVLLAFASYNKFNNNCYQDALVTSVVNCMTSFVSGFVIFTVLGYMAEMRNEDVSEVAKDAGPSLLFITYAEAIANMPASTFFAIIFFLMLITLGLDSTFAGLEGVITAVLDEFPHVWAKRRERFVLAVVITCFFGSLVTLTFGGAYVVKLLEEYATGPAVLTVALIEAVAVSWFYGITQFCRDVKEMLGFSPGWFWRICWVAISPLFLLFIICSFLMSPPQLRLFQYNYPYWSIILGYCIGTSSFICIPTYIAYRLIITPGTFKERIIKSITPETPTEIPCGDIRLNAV

[2] = Tested for its ability to displace [125I]- (1R)-beta-CIT with rat cortical membranes
[3] = as §1; set-up: species or system Striatum, Membrane

`COC(=O)C1C2CC[C@H](C[C@@H]1c1ccc(I)cc1)N2C` (stereo not given in full) showed an IC50 (Rattus norvegicus) of 0.42 nM, an IC50 [1] of 3.8 nM and an IC50 [2] of 0.55 nM.
`COC(=O)[C@@H]1C2CC[C@H](C[C@@H]1c1ccc(I)cc1)N2C` showed an IC50 [3] of 5700 nM and an IC50 [2] of 450 nM.
